“Also recorded” adds a separate entry of the source.
biological target: T1, HIOMT1 (OMT1) O-methyltransferase (Humulus lupulus, UniProt B0ZB55, L311X); assay: 14C-SAM methylation enzyme assay with recombinant HIOMT1 (OMT1) insect cell lysate; assay type: biochemical; settings: crude insect cell lysate, 14C-SAM, radio-HPLC analysis; product xanthohumol
T1 construct: The open reading frame of each enzyme was cloned into the baculovirus expression vector pFastBacHT (Invitrogen); 6xHis with TEV site, from the pFastBacHT vector (own knowledge); made in house; host or cells: Spodoptera frugiperda (Sf9) insect cells, baculovirus; crude cell lysate
Experimental: FIG. 3. Enzymatic activity of HIOMT1 showing that this enzyme methylates desmethylxanthohumol to produce xanthohumol. […] Recombinant HIOMT1 was expressed in insect cells and crude cell lysate used for enzymatic assay. (A) Radio-HPLC analysis of reaction products from empty vector control lysate incubated with ^14C-SAM and desmethylxanthohumol. (B) Radio-HPLC analysis of reaction products from HIOMT1 lysate incubated with ^14C-SAM. (C) Radio-HPLC analysis of reaction products HIOMT1 lysate incubated with ^14C-SAM and desmethylxanthohumol showing that xanthohumol is formed (D) Reversed-phase HPLC analysis of authentic xanthohumol.
(§1) The open reading frame of each enzyme was cloned into the baculovirus expression vector pFastBacHT (Invitrogen) and the resulting bacmid generated using the Bac-to-Bac system (Invitrogen). The bacmid was used to transfect Spodoptera frugiperda (Sf9) insect cells. After amplification of the baculovirus through several passages, insect cell monolayers were infected, cultivated for 2-4 days and then centrifuged to separate cells from culture media. Cell pellets were lysed and aliquots used directly in enzyme assay containing ^14C—S-adenosyl methionine (^14C-SAM) as a methyl donor and various phenolic and phenylpropanoid natural products as substrates. Methylation activity was measured by the extraction of the enzyme reaction with ethyl acetate and its analysis by scintillation counting. In this assay, ^14C-methylation of one of the proffered substrates is indicated by the presence of radioactivity in the ethyl acetate extract.

Row | SMILES | methylation by HIOMT1, reaction product by radio-HPLC (FIG. 3)
1 | CC(C)=CCc1c(O)cc(O)c(C(=O)/C=C/c2ccc(O)cc2)c1O [desmethylxanthohumol] | methylates desmethylxanthohumol to form xanthohumol

same assay, conditions: recombinant enzyme from Sf9 insect cell lysate, 14C-SAM methyl donor, ethyl acetate extract, scintillation counting

Row | SMILES | methylation of substrate by OMT1
2 | CC(C)=CCc1c(O)cc(O)c(C(=O)/C=C/c2ccc(O)cc2)c1O [desmethylxanthohumol] | capable of using desmethylxanthohumol as a substrate; also recorded: methylate
3 | COc1cc(O)c(C(=O)/C=C/c2ccc(O)cc2)c(O)c1CC=C(C)C [xanthogalenol] | methylate

biological target: T2, HIOMT2 (OMT2) O-methyltransferase (Humulus lupulus, UniProt B0ZB56); assay: 14C-SAM methylation enzyme assay with recombinant HIOMT2 (OMT2) insect cell lysate; assay type: biochemical; settings: recombinant enzyme from Sf9 insect cell lysate, 14C-SAM methyl donor, ethyl acetate extract, scintillation counting
T2 construct: The open reading frame of each enzyme was cloned into the baculovirus expression vector pFastBacHT (Invitrogen); 6xHis with TEV site, from the pFastBacHT vector (own knowledge); made in house; host or cells: Spodoptera frugiperda (Sf9) insect cells, baculovirus; crude cell lysate
T2 sequence (B0ZB56 1-360): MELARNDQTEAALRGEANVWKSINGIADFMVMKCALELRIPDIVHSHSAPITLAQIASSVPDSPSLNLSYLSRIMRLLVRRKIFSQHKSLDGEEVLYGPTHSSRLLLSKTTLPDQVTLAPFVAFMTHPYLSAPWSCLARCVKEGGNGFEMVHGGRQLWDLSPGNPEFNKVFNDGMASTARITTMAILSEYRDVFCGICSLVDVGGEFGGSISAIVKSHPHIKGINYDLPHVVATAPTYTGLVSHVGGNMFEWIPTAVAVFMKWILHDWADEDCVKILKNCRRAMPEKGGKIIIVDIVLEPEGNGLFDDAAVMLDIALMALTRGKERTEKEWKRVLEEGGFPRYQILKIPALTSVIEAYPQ
Description: as §1

Row | SMILES | methylation of substrate by OMT2
4 | O=C(/C=C/c1ccc(O)cc1)c1ccccc1O [2′,4-dihydroxychalcone] | methylate
5 | O=C(/C=C/c1ccc(O)c(O)c1)c1ccc(O)cc1O [butein] | methylate
6 | Oc1ccccc1O [catechol] | methylate
7 | O=C(/C=C/c1ccc(O)cc1)c1c(O)cc(O)cc1O [chalconaringenin] | methylate
8 | CC(C)=CCc1c(O)cc(O)c(C(=O)/C=C/c2ccc(O)cc2)c1O [desmethylxanthohumol] | capable of using desmethylxanthohumol as a substrate; also recorded: methylate
9 | C=CCc1ccc(O)c(OC)c1 [eugenol] | methylate
10 | O=c1c(-c2ccc(O)cc2)coc2cc(O)cc(O)c12 [genistein] | methylate
11 | COc1ccccc1O [guaiacol] | methylate
12 | O=C(/C=C/c1ccc(O)cc1)c1ccc(O)cc1O [isoliquiritigenin] | methylate
13 | Cc1cc(O)cc(O)c1 [orcinol] | methylate
14 | Oc1cccc(O)c1 [resorcinol] | methylate
15 | Oc1ccc(C=Cc2cc(O)cc(O)c2)cc1 [resveratrol] | methylate
16 | COc1cc(O)c(CC=C(C)C)c(O)c1C(=O)C=Cc1ccc(O)cc1 [xanthohumol, 1-[2,4-dihydroxy-6-methoxy-3-(3-methylbut-2-enyl)phenyl]-3-(4-hydroxyphenyl)-prop-2-en-1-one] | methylate

— patent US7723088B2, “DNA sequences involved in prenylflavonoid biosynthesis in hops and their use in modifying prenylflavonoid production in plants” (priority 2005, dated 2010)
